Patent US20090136448A1, “Antiviral 2-Carboxy-Thiophene Compounds” (priority 2005, published 2009)

What was measured:
[1] = tested on: HCV replication, genotype 1a (Huh-7 HCV replicon cell); assay: Replicon ELISA cell based assay, genotype 1a; conditions: Hepatitis C virus, Huh-7 HCV replicon cells, 72 hours, mean, assayed at least twice
Protocol: (§1) Replicon ELISA Cell Based Assay
(§2) 100 μL of medium containing 10% FCS were added to each well of clear, flat-bottomed 96 well microplates, excepting wells in the top row. Test compound was diluted in assay medium to twice the final required starting concentration from a 40 mM stock solution in DMSO. 200 μL of the starting dilution were introduced into two wells each in the top row and doubling dilutions made down the plate by the sequential transfer of 100 μL aliquots with thorough mixing in the wells; the final 100 μL were discarded. The two bottom rows were not used for compound dilutions. Huh-7 HCV replicon cell monolayers nearing confluency were stripped from growth flasks with versene-trypsin solution and the cells were resuspended in assay medium at either 2×10^5 cells/mL (sub-line 5-15; genotype 1b; Lohmann, V., Korner, F., Koch, J-O., Herian, U., Thielmann, L. and Bartenschlager, R., Science, 1999, 285, 110-113) or at 3×10^5 cells/mL (genotype 1a; Gu, B., Gates, A. T., Isken, O., Behrens, S. E. and Sarisky, R. T., J. Virol., 2003, 77, 5352-5359). 100 μL of cell suspension were added to all wells and the plates incubated at 37° C. for 72 hours in a 5% CO2 atmosphere.
(§3) Following incubation, the assay medium was aspirated from the plates. The cell sheets were washed by gentle immersion in phosphate buffered saline (PBS), which was then aspirated off, and fixed with acetone:methanol (1:1) for 5 minutes. Following a further wash with PBS, 100 μL of ELISA diluent (PBS+0.05% v/v Tween 20+2% w/v skimmed milk powder) were added to all wells and the plates incubated at 37° C. for 30 minutes on an orbital platform. The diluent was removed and each well then received 50 μL of a 1/200 dilution of anti-HCV specific, murine, monoclonal antibody (either Virostat #1872 or #1877), except for wells in one of the compound-free control rows which received diluent alone to act as negative controls. The plates were incubated at 37° C. for 2 hours and washed 3 times with PBS/0.05% Tween 20, then 50 μL of horseradish peroxidase conjugated, anti-mouse, rabbit polyclonal serum (Dako #P0260), diluted 1/1000, were added to all wells. The plates were incubated for a further hour, the antibody removed and the cell sheets washed 5 times with PBS/Tween and blotted dry. The assay was developed by the addition of 50 μL of ortho-phenylenediamine/peroxidase substrate in urea/citrate buffer (SigmaFast, Sigma #P-9187) to each well, and colour allowed to develop for up to 15 minutes. The reaction was stopped by the addition of 25 μL per well of 2 M sulphuric acid and the plates were read at 490 nm on a Fluostar Optima spectrophotometer.
(§4) The substrate solution was removed and the plates were washed in tap water, blotted dry and the cells stained with 5% carbol fuchsin in water for 30 minutes. The stain was discarded and the cell sheets washed, dried and examined microscopically to assess cytotoxicity.
(§5) The absorbance values from all compound-free wells that had received both primary and secondary antibodies were averaged to obtain a positive control value. The mean absorbance value from the compound-free wells that had not received the primary antibody was used to provide the negative (background) control value. The readings from the duplicate wells at each compound concentration were averaged and, after the subtraction of the mean background from all values, were expressed as a percentage of the positive control signal. The quantifiable and specific reduction of expressed protein detected by the ELISA in the presence of a drug can be used as a measure of replicon inhibition. GraFit software (Erithacus Software Ltd.) was used to plot the curve of percentage inhibition against compound concentration and derive the 50% inhibitory concentration (IC50) for the compound.

[2] = tested on: HCV replication, genotype 1b (Huh-7 HCV replicon cell, sub-line 5-15); assay: Replicon ELISA cell based assay, genotype 1b; conditions: Hepatitis C virus, Huh-7 HCV replicon cells, genotype 1b (sub-line 5-15), 72 hours, mean, assayed at least twice
Protocol: as §1, §2, §3, §4, §5

SMILES	IC50 [1] [nM]	IC50 [2] [nM]
CC(C)N(c1cc(-c2ccc(-c3cc4ncccn4n3)nc2)sc1C(=O)O)C(=O)[C@H]1CC[C@H](C)CC1 [Example 34, 3-[[(trans-4-Methylcyclohexyl)carbonyl](1-methylethyl)amino]-5-(6-pyrazolo[1,5-a]pyrimidin-2-yl-3-pyridinyl)-2-thiophenecarboxylic acid]	10 to 50	50 to 100
C[C@H]1CC[C@H](C(=O)N(CC2CC2)c2cc(-c3ccc(-c4cc5ncccn5n4)cc3)sc2C(=O)O)CC1 [Example 35, 3-{(Cyclopropylmethyl)[(trans-4-methylcyclohexyl)carbonyl]amino}-5-(4-pyrazolo[1,5-a]pyrimidin-2-ylphenyl)-2-thiophenecarboxylic acid]	10 to 50	5 to 10
CC(C)N(c1cc(-c2ccc(-c3cc4ncccn4n3)s2)sc1C(=O)O)C(=O)[C@H]1CC[C@H](C)CC1 [Example 36, 4-[[(trans-4-Methylcyclohexyl)carbonyl](1-methylethyl)amino]-5′-pyrazolo[1,5-a]pyrimidin-2-yl-2,2′-bithionhene-5-carboxylic acid]	10 to 50	10 to 50
CC(C)N(C(=O)[C@H]1CC[C@H](C)C[C@H]1O)c1cc(-c2ccc(-c3cc4ncccn4n3)cc2)sc1C(=O)O [Example 39, 3-[{[(1S,2R,4S)-2-Hydroxy-4-methylcyclohexyl]carbonyl}(1-methylethyl)amino]-5-(4-pyrazolo[1,5-a]pyrimidin-2-ylphenyl)-2-thiophenecarboxylic acid]	10 to 50	5 to 10
CCN(c1cc(-c2ccc(-c3cc4ncccn4n3)cc2)sc1C(=O)O)C(=O)[C@H]1CC[C@H](C)CC1 [Example 40, Ammonium 3-{ethyl[(trans-4-methylcyclohexyl)carbonyl]amino}-5-(4-pyrazolo[1,5-a]pyrimidin-2-ylphenyl)-2-thiophenecarboxylate]	100 to 500	5 to 10
CC(C)N(c1cc(-c2ccc(-c3ccc4[nH]ccc4c3)cc2)sc1C(=O)O)C(=O)[C@H]1CC[C@H](C)CC1 [Example 41, 5-[4-(1H-Indol-5-yl)phenyl]-3-[[(trans-4-methylcyclohexyl)carbonyl](1-methylethyl)amino]-2-thiophenecarboxylic acid]	100 to 500	50 to 100
CC(C)N(c1cc(-c2ccc(-c3ccc4cc[nH]c4c3)cc2)sc1C(=O)O)C(=O)[C@H]1CC[C@H](C)CC1 [Example 42, 5-[4-(1H-Indol-6-yl)phenyl]-3-[[(trans-4-methylcyclohexyl)carbonyl](1-methylethyl)amino]-2-thiophenecarboxylic acid]	100 to 500	10 to 50
CC(C)N(c1cc(-c2ccc(-c3cc4ncccc4o3)s2)sc1C(=O)O)C(=O)[C@H]1CC[C@H](C)CC1 [Example 43, 5′-Furo[3,2-b]pyridin-2-yl-4-[[(trans-4-methylcyclohexyl)carbonyl](1-methylethyl)amino]-2,2′-bithiophene-5-carboxylic acid]	500 to 1000	50 to 100
CC(C)N(c1cc(-c2ccc(-c3nc4ncccc4o3)nc2)sc1C(=O)O)C(=O)[C@H]1CC[C@H](C)CC1 [Example 46, 3-[[(trans-4-Methylcyclohexyl)carbonyl](1-methylethyl)amino]-5-(6-[1,3]oxazolo[4,5-b]pyridin-2-yl-3-pyridinyl)-2-thiophenecarboxylic acid]	100 to 500	100 to 500
